{"source": "ChEMBL document CHEMBL4507273", "about": "(2021)", "key": {"D(2) dopamine receptor [1]": {"target": "T1, D(2) dopamine receptor (Homo sapiens, UniProt P14416)", "T1 sequence (P14416 whole entry)": "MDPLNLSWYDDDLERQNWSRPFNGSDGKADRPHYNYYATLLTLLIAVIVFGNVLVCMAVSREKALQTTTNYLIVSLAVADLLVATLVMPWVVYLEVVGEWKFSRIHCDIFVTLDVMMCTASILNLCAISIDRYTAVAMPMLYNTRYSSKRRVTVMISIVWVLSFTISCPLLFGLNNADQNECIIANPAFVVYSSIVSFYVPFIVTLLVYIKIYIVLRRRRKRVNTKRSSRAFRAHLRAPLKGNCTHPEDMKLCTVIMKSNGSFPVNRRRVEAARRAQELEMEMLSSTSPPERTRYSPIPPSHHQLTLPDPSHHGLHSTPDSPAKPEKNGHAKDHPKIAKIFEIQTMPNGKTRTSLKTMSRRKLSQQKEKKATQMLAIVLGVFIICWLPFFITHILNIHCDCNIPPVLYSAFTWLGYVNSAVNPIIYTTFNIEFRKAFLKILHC", "settings": "Compound concentration 10.0 uM"}, "[2]": {"target": "Cyclin-dependent kinase 1/cyclin B (Homo sapiens) (UniProt P06493+P14635+Q8WWL7+O95067)", "experiment": "CDK1/cyclinB(h) Eurofins Kinase panel", "assay_type": "protein-complex assay", "settings": "Compound concentration 1.0 uM"}, "[3]": {"target": "5-hydroxytryptamine receptor 2A (Homo sapiens, UniProt P28223)", "sequence (P28223 whole entry)": "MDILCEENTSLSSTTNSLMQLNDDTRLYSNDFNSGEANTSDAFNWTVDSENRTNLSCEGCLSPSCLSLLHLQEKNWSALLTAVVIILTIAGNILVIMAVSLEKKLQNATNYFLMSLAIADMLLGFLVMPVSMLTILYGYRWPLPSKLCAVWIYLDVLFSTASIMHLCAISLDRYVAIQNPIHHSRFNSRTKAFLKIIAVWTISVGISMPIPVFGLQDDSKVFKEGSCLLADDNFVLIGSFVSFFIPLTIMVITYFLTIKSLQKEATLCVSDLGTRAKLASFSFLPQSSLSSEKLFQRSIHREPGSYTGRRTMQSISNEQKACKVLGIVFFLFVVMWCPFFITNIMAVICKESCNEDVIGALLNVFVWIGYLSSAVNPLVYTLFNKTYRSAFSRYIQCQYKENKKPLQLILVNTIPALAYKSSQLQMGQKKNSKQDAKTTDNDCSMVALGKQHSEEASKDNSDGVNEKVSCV", "settings": "Compound concentration 10.0 uM"}, "D(4) dopamine receptor": {"target": "D(4) dopamine receptor (Homo sapiens, UniProt P21917)", "sequence (P21917 whole entry)": "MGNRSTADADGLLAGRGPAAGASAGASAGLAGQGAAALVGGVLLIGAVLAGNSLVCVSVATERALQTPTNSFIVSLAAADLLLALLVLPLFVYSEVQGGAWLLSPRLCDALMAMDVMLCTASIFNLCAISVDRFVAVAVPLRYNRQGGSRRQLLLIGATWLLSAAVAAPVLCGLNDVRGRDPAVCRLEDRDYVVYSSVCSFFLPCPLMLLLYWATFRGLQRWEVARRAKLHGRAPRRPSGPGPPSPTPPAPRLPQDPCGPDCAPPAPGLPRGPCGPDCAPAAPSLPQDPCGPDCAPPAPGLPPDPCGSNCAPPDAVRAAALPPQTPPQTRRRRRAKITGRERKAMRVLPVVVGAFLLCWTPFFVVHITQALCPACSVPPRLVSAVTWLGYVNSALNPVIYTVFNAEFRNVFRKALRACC", "experiment": "GPCRScan assay: inhibition of D4", "set-up": "radioligand conc. used [nm] 0.6 – 1.7, parental cells Stable HEK"}, "[4]": {"target": "T2, 5-hydroxytryptamine receptor 1A (Homo sapiens) (UniProt P08908)", "T2 sequence (whole entry)": "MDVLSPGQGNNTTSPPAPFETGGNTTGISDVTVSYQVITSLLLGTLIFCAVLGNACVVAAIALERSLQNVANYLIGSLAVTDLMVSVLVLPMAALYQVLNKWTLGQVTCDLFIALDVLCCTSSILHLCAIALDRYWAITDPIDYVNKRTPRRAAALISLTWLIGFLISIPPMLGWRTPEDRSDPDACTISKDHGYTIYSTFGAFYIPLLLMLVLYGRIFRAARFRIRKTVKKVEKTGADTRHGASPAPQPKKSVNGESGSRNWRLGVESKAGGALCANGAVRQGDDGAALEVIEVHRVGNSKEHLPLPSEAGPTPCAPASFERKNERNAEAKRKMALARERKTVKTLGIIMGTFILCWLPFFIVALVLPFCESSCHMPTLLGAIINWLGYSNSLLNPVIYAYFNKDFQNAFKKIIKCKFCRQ", "settings": "Compound concentration 10.0 uM"}, "Rattus norvegicus": {"species": "Rattus norvegicus", "settings": "Compound concentration 10.0 uM"}, "[5]": {"target": "NT-3 growth factor receptor (Homo sapiens) (UniProt Q16288)", "experiment": "TrkC(h) Eurofins Kinase panel", "settings": "Compound concentration 1.0 uM"}, "[6]": {"target": "T3, Muscarinic acetylcholine receptor M1 (Homo sapiens) (UniProt P11229)", "T3 sequence (whole entry)": "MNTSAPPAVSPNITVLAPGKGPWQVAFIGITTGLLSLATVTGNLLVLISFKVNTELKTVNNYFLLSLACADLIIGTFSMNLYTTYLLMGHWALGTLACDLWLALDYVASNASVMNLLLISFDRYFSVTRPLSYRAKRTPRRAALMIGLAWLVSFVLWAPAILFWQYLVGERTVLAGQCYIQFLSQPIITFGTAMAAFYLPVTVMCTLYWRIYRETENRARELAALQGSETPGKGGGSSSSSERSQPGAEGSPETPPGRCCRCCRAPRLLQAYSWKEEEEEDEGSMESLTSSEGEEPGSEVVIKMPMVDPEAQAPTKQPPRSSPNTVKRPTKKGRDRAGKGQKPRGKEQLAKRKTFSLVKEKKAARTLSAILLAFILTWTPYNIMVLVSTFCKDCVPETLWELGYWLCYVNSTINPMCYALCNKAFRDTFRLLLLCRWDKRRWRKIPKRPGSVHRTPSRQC", "settings": "Compound concentration 10.0 uM"}, "[7]": {"target": "[Pyruvate dehydrogenase (acetyl-transferring)] kinase isozyme 2, mitochondrial (Homo sapiens) (UniProt Q15119)", "experiment": "PDHK2(h) Eurofins Kinase panel", "settings": "Compound concentration 1.0 uM"}, "[8]": {"target": "Serine/threonine-protein kinase PAK 6 (Homo sapiens) (UniProt Q9NQU5)", "sequence (Q9NQU5 whole entry, looked up)": "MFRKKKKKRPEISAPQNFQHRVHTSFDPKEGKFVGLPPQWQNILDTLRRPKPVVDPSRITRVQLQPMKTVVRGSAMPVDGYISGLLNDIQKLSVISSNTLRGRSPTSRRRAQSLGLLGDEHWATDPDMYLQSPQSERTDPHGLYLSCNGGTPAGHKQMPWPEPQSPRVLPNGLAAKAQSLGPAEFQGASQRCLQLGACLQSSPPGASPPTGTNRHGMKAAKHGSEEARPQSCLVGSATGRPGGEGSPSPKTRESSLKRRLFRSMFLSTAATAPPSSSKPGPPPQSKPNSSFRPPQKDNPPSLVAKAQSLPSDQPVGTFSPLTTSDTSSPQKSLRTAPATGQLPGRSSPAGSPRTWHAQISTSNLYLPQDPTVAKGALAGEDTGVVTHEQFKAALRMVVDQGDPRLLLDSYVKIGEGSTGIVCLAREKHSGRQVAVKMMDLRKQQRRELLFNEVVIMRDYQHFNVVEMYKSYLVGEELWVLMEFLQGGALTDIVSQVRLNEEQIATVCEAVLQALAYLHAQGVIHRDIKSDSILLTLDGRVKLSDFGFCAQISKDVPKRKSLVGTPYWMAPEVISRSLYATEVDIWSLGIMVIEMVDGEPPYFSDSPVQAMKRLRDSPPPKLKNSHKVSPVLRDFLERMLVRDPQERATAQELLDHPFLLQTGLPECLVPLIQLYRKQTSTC", "experiment": "PAK6(h) Eurofins Kinase panel", "settings": "Compound concentration 1.0 uM"}, "Mu-type opioid receptor": {"target": "Mu-type opioid receptor (Homo sapiens, UniProt P35372)", "settings": "Compound concentration 10.0 uM"}, "[9]": {"target": "Insulin-like growth factor 1 receptor (Homo sapiens) (UniProt P08069)", "sequence (P08069 31-736 limits assumed)": "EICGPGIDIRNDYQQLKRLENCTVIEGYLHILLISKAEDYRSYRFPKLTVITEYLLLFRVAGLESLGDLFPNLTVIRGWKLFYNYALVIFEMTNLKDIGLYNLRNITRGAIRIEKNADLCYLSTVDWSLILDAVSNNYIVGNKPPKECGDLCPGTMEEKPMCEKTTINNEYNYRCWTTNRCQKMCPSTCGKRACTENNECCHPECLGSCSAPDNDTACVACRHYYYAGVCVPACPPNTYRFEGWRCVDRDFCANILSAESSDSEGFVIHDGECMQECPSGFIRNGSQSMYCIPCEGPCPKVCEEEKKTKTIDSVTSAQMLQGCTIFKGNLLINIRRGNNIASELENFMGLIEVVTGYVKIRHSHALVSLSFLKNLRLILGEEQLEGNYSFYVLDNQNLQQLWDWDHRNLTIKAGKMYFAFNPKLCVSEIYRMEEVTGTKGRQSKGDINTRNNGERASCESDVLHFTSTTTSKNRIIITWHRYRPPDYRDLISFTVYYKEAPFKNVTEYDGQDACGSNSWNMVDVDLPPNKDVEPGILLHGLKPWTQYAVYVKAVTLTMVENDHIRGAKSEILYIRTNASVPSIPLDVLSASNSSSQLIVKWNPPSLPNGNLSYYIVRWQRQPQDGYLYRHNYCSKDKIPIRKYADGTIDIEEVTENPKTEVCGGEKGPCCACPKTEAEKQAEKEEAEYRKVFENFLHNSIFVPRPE", "sequence (P08069 741-1367 limits assumed)": "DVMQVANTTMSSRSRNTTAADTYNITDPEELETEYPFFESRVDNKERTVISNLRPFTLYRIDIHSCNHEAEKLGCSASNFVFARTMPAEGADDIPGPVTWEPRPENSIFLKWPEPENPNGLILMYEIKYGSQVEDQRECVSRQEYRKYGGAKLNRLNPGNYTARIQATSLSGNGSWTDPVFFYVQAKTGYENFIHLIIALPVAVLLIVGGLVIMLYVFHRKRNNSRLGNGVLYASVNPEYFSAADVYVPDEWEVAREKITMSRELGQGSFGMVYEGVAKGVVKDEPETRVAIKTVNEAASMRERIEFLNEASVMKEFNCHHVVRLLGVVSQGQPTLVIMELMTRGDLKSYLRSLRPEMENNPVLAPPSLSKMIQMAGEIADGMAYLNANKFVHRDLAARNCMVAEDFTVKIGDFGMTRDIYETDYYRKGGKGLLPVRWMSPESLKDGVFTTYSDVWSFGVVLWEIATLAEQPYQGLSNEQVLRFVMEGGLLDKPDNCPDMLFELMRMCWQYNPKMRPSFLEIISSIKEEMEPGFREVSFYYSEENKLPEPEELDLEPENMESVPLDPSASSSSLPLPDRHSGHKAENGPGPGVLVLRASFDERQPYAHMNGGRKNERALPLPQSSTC", "experiment": "IGF-1R(h) Eurofins Kinase panel", "settings": "Compound concentration 1.0 uM"}, "[10]": {"target": "T4, 5-hydroxytryptamine receptor 2C (Homo sapiens) (UniProt P28335)", "T4 sequence (whole entry)": "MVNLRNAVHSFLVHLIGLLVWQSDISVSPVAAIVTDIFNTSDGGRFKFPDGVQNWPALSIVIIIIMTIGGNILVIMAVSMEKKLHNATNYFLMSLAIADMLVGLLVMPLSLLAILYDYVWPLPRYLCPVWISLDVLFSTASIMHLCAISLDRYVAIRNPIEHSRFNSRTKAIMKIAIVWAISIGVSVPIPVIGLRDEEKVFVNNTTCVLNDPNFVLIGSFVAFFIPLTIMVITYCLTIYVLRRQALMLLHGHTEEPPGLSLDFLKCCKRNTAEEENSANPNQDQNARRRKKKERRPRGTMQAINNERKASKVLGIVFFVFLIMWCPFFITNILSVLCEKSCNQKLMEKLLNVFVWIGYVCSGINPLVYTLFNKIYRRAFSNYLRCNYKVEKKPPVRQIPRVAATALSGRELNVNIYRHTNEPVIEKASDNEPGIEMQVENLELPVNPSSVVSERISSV", "settings": "Compound concentration 10.0 uM"}, "[11]": {"target": "T5, Alpha-1A adrenergic receptor (Homo sapiens) (UniProt P35348)", "T5 sequence (whole entry)": "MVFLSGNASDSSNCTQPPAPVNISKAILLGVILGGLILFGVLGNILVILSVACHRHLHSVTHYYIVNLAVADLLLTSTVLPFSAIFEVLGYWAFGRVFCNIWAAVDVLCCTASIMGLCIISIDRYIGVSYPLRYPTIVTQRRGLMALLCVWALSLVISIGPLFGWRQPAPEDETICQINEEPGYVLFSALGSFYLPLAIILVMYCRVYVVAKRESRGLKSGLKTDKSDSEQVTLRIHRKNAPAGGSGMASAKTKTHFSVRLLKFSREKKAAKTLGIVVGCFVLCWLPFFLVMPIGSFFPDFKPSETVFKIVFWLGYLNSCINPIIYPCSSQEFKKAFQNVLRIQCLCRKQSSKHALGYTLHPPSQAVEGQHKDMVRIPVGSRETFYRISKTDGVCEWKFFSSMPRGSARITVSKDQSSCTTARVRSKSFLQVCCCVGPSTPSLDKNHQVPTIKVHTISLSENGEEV", "settings": "Rattus norvegicus; Compound concentration 10.0 uM"}, "[12]": {"target": "Serine/threonine-protein kinase Chk2 (Homo sapiens) (UniProt O96017)", "experiment": "CHK2(h) Eurofins Kinase panel", "settings": "Compound concentration 1.0 uM"}, "[13]": {"target": "Serine/threonine-protein kinase 26 (Homo sapiens) (UniProt Q9P289)", "experiment": "MST4(h) Eurofins Kinase panel", "settings": "Compound concentration 1.0 uM"}, "[14]": {"target": "Tyrosine-protein kinase SYK (Homo sapiens) (UniProt P43405)", "experiment": "Syk(h) Eurofins Kinase panel", "settings": "Compound concentration 1.0 uM"}, "[15]": {"target": "Kappa-type opioid receptor (Homo sapiens, UniProt P41145)", "sequence (P41145 whole entry)": "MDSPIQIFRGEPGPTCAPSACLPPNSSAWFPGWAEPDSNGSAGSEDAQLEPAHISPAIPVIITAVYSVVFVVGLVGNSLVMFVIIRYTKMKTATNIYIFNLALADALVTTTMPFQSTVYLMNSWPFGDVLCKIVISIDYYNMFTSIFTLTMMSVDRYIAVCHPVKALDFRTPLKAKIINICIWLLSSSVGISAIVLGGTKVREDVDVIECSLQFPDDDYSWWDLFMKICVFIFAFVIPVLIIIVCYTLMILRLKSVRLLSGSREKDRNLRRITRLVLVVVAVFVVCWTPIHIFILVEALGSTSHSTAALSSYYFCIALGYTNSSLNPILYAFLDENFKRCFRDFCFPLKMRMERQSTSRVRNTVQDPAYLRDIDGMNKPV", "experiment": "GPCRScan assay: inhibition of KOR", "set-up": "radioligand conc. used [nm] 0.6 – 1.2, parental cells stable HEK"}, "[16]": {"target": "Muscarinic acetylcholine receptor M4 (Homo sapiens, UniProt P08173)", "sequence (P08173 whole entry)": "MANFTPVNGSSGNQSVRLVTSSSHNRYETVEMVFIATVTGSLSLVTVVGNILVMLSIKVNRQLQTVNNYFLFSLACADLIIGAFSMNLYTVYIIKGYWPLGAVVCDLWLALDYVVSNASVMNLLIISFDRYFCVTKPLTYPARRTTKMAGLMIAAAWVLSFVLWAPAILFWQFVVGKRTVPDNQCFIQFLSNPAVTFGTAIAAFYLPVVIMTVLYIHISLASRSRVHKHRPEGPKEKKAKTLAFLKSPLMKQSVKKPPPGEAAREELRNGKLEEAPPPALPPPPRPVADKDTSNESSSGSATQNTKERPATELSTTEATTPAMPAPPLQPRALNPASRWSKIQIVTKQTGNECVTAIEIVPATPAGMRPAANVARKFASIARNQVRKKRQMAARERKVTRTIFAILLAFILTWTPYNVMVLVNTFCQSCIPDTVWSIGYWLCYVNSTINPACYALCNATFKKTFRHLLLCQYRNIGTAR", "experiment": "GPCRScan assay: inhibition of M4", "set-up": "radioligand conc. used [nm] 0.3 – 1.0, parental cells stable CHO"}, "Histamine H1 receptor": {"target": "Histamine H1 receptor (Homo sapiens, UniProt P35367)", "sequence (P35367 whole entry)": "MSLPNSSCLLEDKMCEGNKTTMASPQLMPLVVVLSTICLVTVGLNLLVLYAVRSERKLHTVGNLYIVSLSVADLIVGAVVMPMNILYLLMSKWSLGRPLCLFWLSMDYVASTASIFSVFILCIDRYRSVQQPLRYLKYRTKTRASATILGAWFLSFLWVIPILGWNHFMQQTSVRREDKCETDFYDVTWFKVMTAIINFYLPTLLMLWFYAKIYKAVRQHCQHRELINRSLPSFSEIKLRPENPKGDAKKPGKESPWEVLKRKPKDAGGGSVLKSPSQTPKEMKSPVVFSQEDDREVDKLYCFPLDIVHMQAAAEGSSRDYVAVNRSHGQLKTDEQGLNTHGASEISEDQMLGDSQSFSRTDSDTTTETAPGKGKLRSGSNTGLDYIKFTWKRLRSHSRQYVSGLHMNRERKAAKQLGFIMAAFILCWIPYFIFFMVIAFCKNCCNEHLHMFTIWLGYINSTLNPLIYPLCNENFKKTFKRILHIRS", "experiment": "GPCRScan assay: inhibition of H1", "set-up": "radioligand conc. used [nm] 0.6 – 2.0, parental cells stable HEK"}, "D(2) dopamine receptor [17]": {"target": "T1, D(2) dopamine receptor", "experiment": "GPCRScan assay: inhibition of D2", "set-up": "radioligand conc. used [nm] 0.4 – 1.0, parental cells stable fibroblast"}}, "note": "pKi: −log10 of the molar value."}
{"molecule": "CNCc1ccccc1-c1csc([C@@H](C)Nc2nc(C)nc3cc(OC)c(OC)cc23)c1", "note": "[BAY-293]", "values": [{"measurement": "inhibition", "setting": "D(2) dopamine receptor [1]", "value": 71, "unit": "%"}, {"measurement": "% residual kinase activity", "setting": "[2]", "value": 87, "unit": "%"}, {"measurement": "inhibition", "setting": "[3]", "value": 110, "unit": "%"}, {"measurement": "pKi", "setting": "D(4) dopamine receptor; read-out: Ki", "value": 5.57}, {"measurement": "Ki", "setting": "D(4) dopamine receptor; read-out: pKi (converted)", "value": 2.63, "unit": "µM"}, {"measurement": "inhibition", "setting": "[4]", "value": 81, "unit": "%"}, {"measurement": "inhibition", "setting": "Rattus norvegicus", "value": 71, "unit": "%"}, {"measurement": "% residual kinase activity", "setting": "[5]", "value": 80, "unit": "%"}, {"measurement": "inhibition", "setting": "[6]", "value": 94, "unit": "%"}, {"measurement": "% residual kinase activity", "setting": "[7]", "value": 85, "unit": "%"}, {"measurement": "% residual kinase activity", "setting": "[8]", "value": 88, "unit": "%"}, {"measurement": "inhibition", "setting": "Mu-type opioid receptor", "value": 93, "unit": "%"}, {"measurement": "% residual kinase activity", "setting": "[9]", "value": 74, "unit": "%"}, {"measurement": "inhibition", "setting": "[10]", "value": 104, "unit": "%"}, {"measurement": "inhibition", "setting": "[11]", "value": 106, "unit": "%"}, {"measurement": "% residual kinase activity", "setting": "[12]", "value": 80, "unit": "%"}, {"measurement": "% residual kinase activity", "setting": "[13]", "value": 88, "unit": "%"}, {"measurement": "% residual kinase activity", "setting": "[14]", "value": 79, "unit": "%"}]}
{"molecule": "CNCc1ccccc1-c1csc([C@H](C)Nc2nc(C)nc3cc(OC)c(OC)cc23)c1", "note": "[BAY-294]", "values": [{"measurement": "pKi", "setting": "[15]; read-out: Ki", "value": 6.08}, {"measurement": "Ki", "setting": "[15]; read-out: pKi (converted)", "value": 0.822, "unit": "µM"}, {"measurement": "pKi", "setting": "[16]; read-out: Ki", "value": 6.52}, {"measurement": "Ki", "setting": "[16]; read-out: pKi (converted)", "value": 0.292, "unit": "µM"}, {"measurement": "pKi", "setting": "Histamine H1 receptor; read-out: Ki", "value": 5.86}, {"measurement": "Ki", "setting": "Histamine H1 receptor; read-out: pKi (converted)", "value": 1.35, "unit": "µM"}, {"measurement": "pKi", "setting": "D(2) dopamine receptor [17]; read-out: Ki", "value": 5.63}, {"measurement": "Ki", "setting": "D(2) dopamine receptor [17]; read-out: pKi (converted)", "value": 2, "unit": "µM"}]}
